Measured values from patent EP0403963A2, “Anthracycline derivatives, process for their preparation and their use as medicaments” (priority 1989, dated 1990).
≈ marks a conversion by molar mass, not a printed value. Read-outs that look alike come from different tables or passages of the source.

Legend:
[1] = Acute toxicity, intravenous injection; assay type: in vivo, Mäusen; conditions: mouse, in vivo, iv; i.v. on day 0, 3 and 6; survivors counted on day 20; 2 mice per dose; read-out: akute Toxizität LD50
Description: (§1) Zur Ermittlung der akuten Toxizität wurden BDFi-Mäusen am Tag 0, Tag 3 und Tag 6 unterschiedliche Dosen der Testsubstanz, gelöst in 0,4 ml physiologischer Kochsalzlösung, intravenös injiziert. Kontrollgruppen erhielten lediglich 0,4 ml physiologischer Kochsalzlösung. Pro Konzentration der Testsubstanz wurden 2 Mäuse verwendet. Am Tag 20 wurde die Zahl der überlebenden Mäuse und daraus die LD50 ermittelt. Die Toxizität der hier beschriebenen Verbindungen im Vergleich zu Adriamycin ist in Tabelle 1 zusammengefaßt.

[2] = test system: L1210 Leukämiezellen; experiment: Proliferation test (MTT), continuous incubation; assay type: cell-based, Maus; conditions: for IC50: Mus musculus, read-out: Zytotoxizität (Dauerinkubation) IC50
Description: Kontrollen bestehen aus Zellen, die lediglich mit frischem Medium inkubiert werden. Alle Bestimmungen werden als 4-fache Bestimmung durchgeführt. Nach 65 Stunden werden 50 ul MTT (3-(4,5-Dimethylthiazol-2-yl)-2,5-diphenyl-tetrazoliumbromid, 2,5 mg/mi in PBS) zugegeben. MTT wird durch lebende Zellen zu einem […], unlöslichen Formazan-Farbstoff reduziert. Nach einer weiteren 7-stündigen Inkubation wird das überstehende Medium vorsichtig abgesaugt. Der Formazan-Farbstoff wird durch Zugabe von jeweils 100 ul DMSO in die Vertiefungen der Mikrotiterplatte und vorsichtiges Schütteln gelöst. Die Extinktion der jeweiligen Lösung wird mit Hilfe eines Multiscan Photometers 340 CC, Fa. Flow, bei 492 nm gemessen.

[3] = Qualitative solubility of the isolated substance; assay type: physicochemical; conditions: solvents: Methanol, Ethylacetat, Chloroform, Wasser, Hexan
[4] = test system: BDFi-Mäusen; experiment: Acute toxicity, intravenous injection; assay type: in vivo; conditions: i.v. on day 0, 3 and 6; survivors counted on day 20; 2 mice per dose; 28800 min
Description: as §1

[5] = L1210 cells, 72 h incubation, MTT readout at 492 nm

Molecule	LD50 at 480 h [1] [mg/kg]	IC50 ([2]; L1210, 72 h) [µg/mL]	IC50 [2, 5] [µg/mL]	Löslichkeit [3]	akute Toxizität LD50 [4] [mg/kg]	Zytotoxizität (Dauerinkubation) IC50 [2, 5]
COc1cccc2c1C(=O)c1c(O)c3c(c(O)c1C2=O)C[C@@](O)(C(=O)CO)C[C@@H]3O[C@H]1C[C@H](N)[C@H](O)[C@H](C)O1 [Adriamycin, reference compound]	10	0.02 to 0.03 (≈ 0.0368 to 0.0552 µM)	–	–	–	–
CC[C@@]1(O[C@H]2C[C@H](N(C)C)[C@H](O)[C@H](C)O2)CCc2c(O)c3c(c(O)c2[C@H]1O[C@H]1C[C@H](N(C)C)[C@H](O)[C@H](C)O1)C(=O)c1cccc(O)c1C3=O [9-0,10-0-Bis (α-L-rhodosaminyl)-γ-rhodomycinon]	25 to 50	–	0.35 (≈ 0.511 µM)	leicht löslich in Methanol, Ethylacetat, Chloroform, unlöslich in Wasser und Hexan	–	–
Cytorhodin Z	–	–	–	leicht löslich in Methanol, Ethylacetat, Chloroform, unlöslich in Wasser und Hexan	10 to 25	0,33 µg/ml
